Laboratory results: patent US20210196598A1, “Specific Co-Aggregation Inhibition by Arginine” (priority 2018, published 2021)

Legend:
[1] = system: co-aggregates of S. gordonii (commensal) and A. naeslundii (commensal); assay: FlowCam coaggregation, commensal:commensal pair S. gordonii and A. naeslundii; format: cell-based, Streptococcus gordonii and Actinomyces naeslundii
Procedure: (§1) Coaggregation was studied using FlowCam® technology (Fluid Imaging Technologies, ME, USA). S. gordonii DL1, A. oris MG1, P. gingivalis W83, and F. nucleatum ATCC 25586 were harvested from batch cultures and washed once in coaggregation buffer by centrifuging for 10 mins at 3,000 g. After centrifugation, the pellets were re-suspended in coaggregation buffer and adjusted to an optical density of 1.0 (±0.1) at 600 nm. The cell suspensions were then subject to a 5-fold dilution in coaggregation buffer. Each pair was then loaded onto the FlowCam™ device and allowed to sit for one minute. The pairs were subsequently pumped through the device until they reached the flow cell. Data collection was initiated once the Olympus UPlanFLN 10X/0.30 objective was focused on the flowing particles. The FlowCam™ was run for 45 seconds at a flow rate of 0.3 ml/min and images were acquired at 10 frames per second. Flash duration was set to 8 μSec and the particle sizes were measured using area based diameter (ABD) with a particle filter set to detect between 5 and 10000 μm. The same procedure was tested for each pair while suspended in coaggregation buffer supplemented with various concentrations of arginine or lysine.
(§2) The following three pairs of co-aggregates were co-cultured and treated with either buffer (untreated; control) 86 mM arginine or 100 mM arginine:
1) Commensal oral bacteria Streptococcus gordonii and Actinomyces naeslundii,
(§3) The reduction in aggregate sizes was greater in each pair of commensal/pathogenic bacteria, i.e. the co-aggregates of A. naeslundii (commensal) and P. gingivalis (pathogenic) and the co-aggregates of S. gordonii (commensal) and F. nucleatum (pathogenic) compared to the commensal/commensal co-aggregates of S. gordonii (commensal) and A. naeslundii (commensal).
(§4) In FIG. 2, the data from the treated co-aggregates was normalized against untreated co-aggregates. FIG. 2 reflects a selective action of arginine against specific co-aggregates. […]

[2] = system: co-aggregates of A. naeslundii (commensal) and P. gingivalis (pathogenic); assay: FlowCam coaggregation, commensal:pathogenic pair A. naeslundii and P. gingivalis; format: cell-based, Actinomyces naeslundii and Porphyromonas gingivalis
Procedure: as §1, §2
2) Commensal oral bacterium A. naeslundii and pathogenic bacterium Porphyromonas gingivalis,
as §3, §4

[3] = system: co-aggregates of S. gordonii (commensal) and F. nucleatum (pathogenic); assay: FlowCam coaggregation, commensal:pathogenic pair S. gordonii and F. nucleatum; format: cell-based, Streptococcus gordonii and Fusobacterium nucleatum
Procedure: as §1, §2
3) Commensal oral bacterium S. gordonii and pathogenic bacterium Fusobacterium nucleatum.
as §3, §4

[4] = system: S. gordonii and A. oris co-aggregate pair; assay: Visual Coaggregation Score, S. gordonii + A. oris; format: cell-based; conditions: for Visual Coaggregation Score (0-4): post-treatment
Procedure: (§5) The following six pairs of co-aggregates were co-cultured and treated with either 86 mM arginine, 400 mM arginine, 86 mM lysine or 400 mM lysine:
1) Commensal oral bacteria S. gordonii and A. oris;
(§6) Bacterial aggregation was scored visually using a Visual Coaggregation Score (0-4) scoring system.

[5] = system: S. gordonii and V. atypica co-aggregate pair; assay: Visual Coaggregation Score, S. gordonii + V. atypica; format: cell-based; conditions: post-treatment
Procedure: as §5
2) Commensal oral bacterium S. gordonii and pathogenic oral bacterium V. atypica;
as §6

[6] = system: S. gordonii and F. nucleatum co-aggregate pair; assay: Visual Coaggregation Score, S. gordonii + F. nucleatum; format: cell-based; conditions: post-treatment
Procedure: as §5
3) Commensal oral bacterium S. gordonii and pathogenic oral bacterium F. nucleatum;
as §6

[7] = system: A. oris and V. atypica co-aggregate pair; assay: Visual Coaggregation Score, A. oris + V. atypica; format: cell-based; conditions: post-treatment
Procedure: as §5
4) Commensal oral bacterium A. oris and pathogenic oral bacterium V. atypica;
as §6

[8] = system: A. oris and F. nucleatum co-aggregate pair; assay: Visual Coaggregation Score, A. oris + F. nucleatum; format: cell-based; conditions: post-treatment
Procedure: as §5
5) Commensal oral bacterium A. oris and pathogenic oral bacterium F. nucleatum; and
as §6

[9] = system: A. oris and P. gingivalis co-aggregate pair; assay: Visual Coaggregation Score, A. oris + P. gingivalis; format: cell-based; conditions: post-treatment
Procedure: as §5
6) Commensal oral bacterium A. oris and pathogenic oral bacterium P. gingivalis.
as §6

[10] = system: commensal/pathogenic co-aggregate pairs; assay: Visual coaggregation scoring, summary in words over the co-aggregate pairs of Table 1; format: cell-based
oral biofilms (plaque) = assay: Destabilization of oral biofilms (plaque); format: cell-based; conditions: biofilms treated with the amino acid
[11] = 86 mM and 100 mM arginine, FIG. 1
[12] = Streptococcus gordonii, read-out: inhibition of co-aggregation, normalized against untreated co-aggregates
[13] = Actinomyces naeslundii, read-out: inhibition of co-aggregation, normalized against untreated co-aggregates

Structure (SMILES) | Visual Coaggregation Score (0-4) ([4]; 86 mM amino acid) | Visual Coaggregation Score (0-4) ([4]; 400 mM amino acid) | Visual Coaggregation Score (0-4) ([5]; 86 mM amino acid) | Visual Coaggregation Score (0-4) ([5]; 400 mM amino acid) | Visual Coaggregation Score (0-4) ([6]; 86 mM amino acid) | Visual Coaggregation Score (0-4) ([6]; 400 mM amino acid) | Visual Coaggregation Score (0-4) ([7]; 86 mM amino acid) | Visual Coaggregation Score (0-4) ([7]; 400 mM amino acid) | Visual Coaggregation Score (0-4) ([8]; 86 mM amino acid) | Visual Coaggregation Score (0-4) ([8]; 400 mM amino acid) | Visual Coaggregation Score (0-4) ([9]; 86 mM amino acid) | Visual Coaggregation Score (0-4) ([9]; 400 mM amino acid) | effect on oral biofilms / total biofilm biomass, in words (oral biofilms (plaque)) | further results
N=C(N)NCCC[C@H](N)C(=O)O [arginine] | 4 | 3-4 | 2-3 | 2 | 0-1 | 0-1 | 0-1 | 0 | 0-1 | 0 | 0-1 | 0 | reductions in total biofilm biomass | bacterial aggregate sizes (area based diameter), in words [1, 11]: dose dependent reduction; inhibition at 86000 µM [1, 12]: 11%; inhibition at 100000 µM [1, 12]: 14%; bacterial aggregate sizes (area based diameter), in words [2, 11]: dose dependent reduction; inhibition at 86000 µM [2, 13]: 22%; inhibition at 100000 µM [2, 13]: 64%; bacterial aggregate sizes (area based diameter), in words [3, 11]: dose dependent reduction; inhibition at 86000 µM [3, 12]: 25%; inhibition at 100000 µM [3, 12]: 37%; inhibitory effect on aggregation, in words ([4]; 86 mM and 100 mM arginine (so in the source), commensal/commensal pair): none to little inhibitory effect; inhibition of aggregation, in words ([10]; 86 mM and 100 mM arginine (so in the source), each of the five commensal/pathogenic pairs): selectively inhibited aggregation
NCCCC[C@H](N)C(=O)O [lysine, reference compound] | 4 | 4 | 4 | 3 | 3-4 | 3 | 3 | 0-1 | 3-4 | 2-3 | 1-2 | 0-1 | No similar disruptive effects | anti-coadhesion functionality, in words ([10]; lysine in any of the corresponding pairs): Little to no anti-coadhesion functionality
